Laboratory results published in patent US7781580B2, “Stilbene derivatives as new cancer therapeutic agents” (Virginia Commonwealth University, priority 2007, dated 2010).
Structures can show the parent of a compound that is named as a salt. Where two headings read alike, the source gives them in different places.

Tests used:
[1] = system: MiaPaCa2 pancreatic cancer cells; assay: Alamar Blue cell growth inhibition, MiaPaCa2; assay type: cell-based; conditions: Homo sapiens, MIA PaCa-2; MiaPaCa2
Protocol: (§1) Various cancer cell lines were grown in 96-well plates for drug sensitivity assays. Once cells achieved 50% confluence, the incubation media was changed to the same cell growth media with different concentrations of the tested compounds or vehicle alone. Cells were then incubated for 48 hours before the cell growth inhibition study. To determine the degree of cell growth inhibition, 1/10 volume of Alamar Blue™ solution was added to each well and optical density (OD) at 570 and 600 nm was determined. The percentage of growth inhibition was calculated according to the manufacturer's formula as follows: The percentage of growth is [(117216×A570)−(80586×A600)]/[(117216×A^o570)−(80586×A^o600)]×100. In this formula, A570 is the absorbance of the treated samples at 570 nm; A600 is the absorbance of the treated samples at 600 nm; A^o570 is the absorbance of the […] samples at 570 nm; and A^o600 is the absorbance of the untreated samples at 600 nm. The two constants, 117216 and 80586, are the extinction coefficients of Alamar Blue™ at 570 and 600 nm respectively. Each concentration was repeated in triplicate to minimize the error.
(§2) We first tested the cytotoxic effect of various stilbene derivatives for their in vitro efficacy of suppressing tumor cell proliferation. Cells were first plated in 96-well plates at 50% confluence and treated with 0, 0.01, 0.03, 0.1, 0.3, 1.0, 3.0, 10 μM concentrations of stilbene derivatives for 48 hours in triplicate. Alamar Blue™ reagent was added into each well at 1/10 volume and incubated for 2 hours before quantification of the absorbance at 570 and 600 nm.

[2] = system: SNU423 hepatocellular carcinoma cells; assay: Alamar Blue cell growth inhibition, SNU423; assay type: cell-based
Protocol: Cell growth was measured by Alamar Blue™ staining and the OD absorbance at 570 and 600 nm was determined by a microplate reader. The percentage of cell growth inhibition was calculated and compared with the control cells that were treated with 0.1% DMSO, the vehicle for the stilbene compounds.
as §1, §2

[3] = system: MDA-MB231 breast cancer cells; assay: Alamar Blue cell growth inhibition, MDA-MB231; assay type: cell-based; conditions: Homo sapiens, MDA-MB-231; MDA-MB231
Protocol: Cell growth was measured by Alamar Blue™ staining and the percentage of cell growth inhibition was calculated and compared with control cells that were treated with 0.1% DMSO, the vehicles for the stilbene compounds.
as §1, §2

[4] = system: SKOV3 ovarian cancer cells; assay: Alamar Blue cell growth inhibition, SKOV3; assay type: cell-based; conditions: for effective / active concentration: SKOV3, 48 hours
Protocol: Cells were incubated with various concentrations of the compounds for 48 hours. Cell growth was measured by Alamar Blue™ staining and the percentage of cell growth inhibition was calculated and compared with the control cells that were treated with 0.1% DMSO, the vehicle for the stilbene compounds.
as §1

[5] = system: UCI101 ovarian cancer cells; assay: Western blot of signal transduction events, UCI101; assay type: cell-based; conditions: for phosphorylation of Chk1: 36 hours
Protocol: All these agents are microtubule interfering agents but with different binding sites. Cells were harvested at 0, 4, 8, 16 and 36 hours after drug treatment for Western blot analysis. […] Phosphorylation of both Cdc25C and Cdc2 disappeared after 16 hours and slightly recovered at 36 hours. […] Akt phosphorylation decreased after 16 hours of treatment.
In order to understand the mechanism of resistance of stilbenes, various signal transduction pathways were investigated to examine how cells respond to stilbene treatment. UCI101 ovarian cancer cells were treated with stilbenes 4a, 4c or paclitaxel (Taxol) at 0.1 μM for 0, 4, 8, 16 and 36 hours. Cells were harvested for Western blotting. Changes in the kinases involved in cell cycle progression from G2-M transition were first determined in Cdc2, Cdc25c, and mitotic spindle check point regulator BubR1. […] 36 hours after treatment, rephosphorylation of Cdc2 was observed. […] The higher molecular weight isomer of Cdc25c, the mitotic form, increased at 16 and 36 hours. […] A similar study was then performed with other microtubule interfering agents such as combretastatin A4, 13a and vincristine for comparison. A similar trend was observed among these three microtubule interfering agents (FIG. 18).

Tubulin (>99% pure) = assay: tubulin polymerization assay (OD 340 nm); assay type: biochemical; conditions: OD340 nm; nocodazole and paclitaxel 10 μM
Protocol: FIG. 3a-d. Stilbenes inhibit tubulin polymerization. (a) Effect of stilbene 4a. Pure tubulin was incubated with various concentrations of stilbene 4a, 10 μM nocodazole, and 10 μM paclitaxel in the polymerization buffer. The OD at 340 nm was monitored every minute by SpectraMAX 250 and plotted against time. (b) Effect of stilbene 4c. (c) Comparison of same concentrations of stilbenes 4a, 4a trans, 4c and 4c trans with control. […] Tubulin was incubated with [^3H]-colchicine and various concentrations of different stilbenes for 20 min. Tubulin was then separated from the unbound [^3H]-colchicine by Microcon-30 and washed three times with PBS. The radioactivity of the tubulin was counted. […] All experiments were done in triplicates.
The tubulin polymerization assay kit was purchased from Cytoskeleton (Denver, Colo.). Tubulin (>99% pure) was mixed with general tubulin buffer (GTB, 80 mM PIPES pH 6.9, 2 mM MgCl2, 0.5 mM EGTA, and 1 mM GTP) in a 96-well plate at 37° C. Absorbance at 340 nm was measured every 1 min for 60 min by SpectraMAX 250 (Molecular Devices, Sunnyville, Calif.). Analysis of the results was performed by SoftMAX Pro version 1.2.0 from the same company.

HL60 cells = conditions: cited from earlier work; for IC50: read-out: IC50, induction of HL60 apoptosis
[6] = system: UCI101 ovarian cancer cells; assay: Alamar Blue cell growth inhibition, UCI101; assay type: cell-based; conditions: UCI101, 48 hours
Protocol: Cell growth was measured by AlamarBlue™ staining and the percentage of cell growth inhibition was calculated and compared with the control cells that were treated with 0.1% DMSO, the vehicles for the stilbene compounds.
Cells were treated with the tested drug for 2 days before analysis of cell growth by Alamar Blue™ staining. Cells treated with 0.1% DMSO were used as control and set as 100%.
(a) In vitro sensitivity of UCI101 cells toward three potential stilbene prodrugs, 5a-c, was tested in 96-well plates using Alamar Blue™ assays to determine cell growth inhibition. […] (b) 5b induces cell cycle change and apoptosis in UCI101 cells. Cells were incubated with 5b at 1, 3, 10 μM for 16 hours followed by PI staining and flow cytometry analysis. A subG0/1 population, representing apoptotic cells, appeared along with a decrease of the G1/G2 ratio after cells were treated with 3 μM 5b. Higher concentration (10 μM) of 5b completely killed cells, as was the case with stilbene 4a at […]. (c) Cells treated with stilbene 4a and 5b were stained with phospho-histone 3B, a mitotic marker. The positive signals of phospho-histone 3B were shown in green and nuclei were stained with DAPI in blue. […] (d) In vivo efficacy of 5b compared with stilbene 4a. Nude mice were injected with UCI101 ovarian cancer cells and treated with 7 doses of 5b,c or stilbene 4a every 2-3 days. Tumor volume was calculated and plotted against days.
as §1, §2

MDA-MB231 cells = assay: immunofluorescent staining of tubulin, MDA-MB231; assay type: cell-based; conditions: CA4 10 nM, stilbene 4a 100 nM, vincristine 100 nM, 5b 3 μM; 16 hours
From the text: Nuclei were stained with 4′,6-diamidino-2-phenylindole (DAPI). Control cells show the reticular pattern of the microtubule network.

[7] = acute toxicity in dose escalating study; assay type: in vivo, mice
Protocol: Acute toxicity in dose escalating study: We investigated the efficacy of stilbene 4a in vivo using mouse xenograft model. First we determined the maximal tolerated dose of stilbene 4a since it has a higher potency in vitro. […] Subsequently mice fully recovered 30 min after injection.

[8] = in vivo; cited from earlier work

## COc1cc(/C=C\c2ccc(OC)c(N)c2)cc(OCCO)c1 [10a, (Z)-2-{3-[2-(3-Amino-4-methoxy-phenyl)-vinyl]-5-methoxy-phenoxy}-ethanol, hydrochloride]
[1]
  IC50: 0.3 µM
[2]; Homo sapiens, SNU-423, 48 h, read-out: IC50 (50% growth inhibition), SNU423, 48 hours
  IC50: ≤ 0.3 µM
[2]; read-out: IC50 (50% growth inhibition), SNU423, 48 hours, hydrochloride
  IC50: 0.3 µM
[3]
  IC50: 0.08 µM
[4]; SKOV3
  activity: also effective
[4]
  effective / active concentration: 0.1 µM

## CC(=O)O[C@H]1C(=O)[C@@]2(C)[C@H]([C@H](OC(=O)c3ccccc3)[C@]3(O)C[C@H](OC(=O)[C@H](O)[C@@H](NC(=O)c4ccccc4)c4ccccc4)C(C)=C1C3(C)C)[C@]1(OC(C)=O)CO[C@@H]1C[C@@H]2O [paclitaxel, reference compound]
[5]; 0.1 μM, 16 hours
  phosphorylation of Cdc2 at Tyr15: decreased dramatically
[5]
  phosphorylation of Chk1: do not cause more phosphorylation of Chk1
Tubulin (>99% pure)
  effect on tubulin polymerization: enhanced

## COc1cc(/C=C\c2ccc(OC)c(O)c2)cc(OC)c1 [stilbene 6c, cis-3,4′,5-trimethoxy-3′-hydroxystilbene]
HL60 cells
  cytotoxicity under overexpression of MDR gene: not affected by overexpression of multiple-drug resistant (MDR) gene
HL60 cells; Roberti et al.
  IC50: 0.03 µM

## CC[C@]1(O)C[C@H]2CN(CCc3c([nH]c4ccccc34)[C@@](C(=O)OC)(c3cc4c(cc3OC)N(C=O)[C@H]3[C@@](O)(C(=O)OC)[C@H](OC(C)=O)[C@]5(CC)C=CCN6CC[C@]43[C@@H]65)C2)C1 [vincristine, reference compound]
[5]; 0.1 μM
  phosphorylation of Stat3: more pronounced
[5]
  phosphorylation of Chk1: do not cause more phosphorylation of Chk1
[2]; SNU423
  relative potency: equivalent
[6]
  relative potency / activity: about equal in their potency
[4]; Homo sapiens, SK-OV-3, SKOV, read-out: IC50
  IC50: 0.05 to 0.1 µM
[4]
  effective / active concentration: 0.1 µM
MDA-MB231 cells
  microtubule pattern: fine granular pattern without formation of microtubules

## COc1cc(/C=C\c2ccc(OC)c(N)c2)cc(OC)c1 [stilbene 5c, cis-3,4′,5-trimethoxy-3′-aminostilbene]
[7]; 6 or 33 mg/kg intravenously
  acute toxicity at 6 or 33 mg/kg: did not cause any acute toxicity
[7]; 72 and 97 mg/kg intravenously
  acute toxicity at 72 and 97 mg/kg: transient weakness as shown by dragging feet and sluggish movement
  time to full recovery after injection: 30 min
HL60 cells; Roberti et al.
  cytotoxicity under overexpression of MDR gene: not affected by overexpression of multiple-drug resistant (MDR) gene
  IC50: 0.03 µM

## COc1cc2c(c(OC)c1OC)-c1ccc(OP(=O)(O)O)cc1[C@@H](NC(C)=O)CC2 [ZD6126]
[8]
  toxicity in phase I clinical trials: cardiac toxicity (such as decreasing left ventricular ejection fraction) and dose limiting toxicity were observed
